From patent US8912169B2, “Beta-lactamase inhibitors” (VenatoRx Pharmaceuticals, Inc., priority 2012, dated 2014)

What was measured:
Assay type in all cases: biochemical
KPC-2 = target: T1, KPC-2 (Klebsiella pneumoniae, UniProt Q9F663); assay: β-lactamase enzyme inhibition, KPC-2; details: substrate imipenem, 300 nm; read-out: Class A KPC-2 IC50
T1 construct: made in house; host or cells: E. coli BL21(DE3)
Method: (§1) For SHV-5, Kpc-2, p99AmpC and OXA-1 β-lactamases, E. coli BL21(DE3) bacterial cells carrying expression plasmids (expressed as native untagged proteins) for the individual β-lactamases were grown in 1 L of Superbroth (Teknova Inc. Hollister, Calif.) supplemented with 100 μg/mlkanamycin selection and 1×5052 (0.5% glycerol, 0.05% glucose and 0.2% α-lactose) at 35° C. for 18-20 hours. Cells were harvested by centrifugation (4,000×g, 4° C., 20 min), resuspended in 50 ml of 10 mM HEPES pH 7.5 ( 1/20 of the initial volume). The cells were lysed by sonication (5 pulses of 45 seconds) at 45 W on ice. The lysates were clarified by centrifugation at 10,000×g for 40 minutes at 4° C. Samples were diluted 5-fold in 50 mM sodium acetate pH 5.0, stored overnight at 4° C., after which they were centrifuged at 10,000×g for 30 minutes to clarify, and filtered through 0.45 μm filters. The samples were loaded onto a 5 ml Capto S sepharose cation exchange column (GE Healthcare) pre-equilibrated with 50 mM sodium acetate pH 5.0. The column was washed with 5 column volumes of 50 mM sodium acetate pH 5.0 to wash out unbound protein and a linear gradient of NaCl (0 to 500 mM) was used to elute the protein (over 16 CV) from the column. Fractions were assayed for β-lactamase activity using Centa (Calbiochem, Gibbstown, N.J.) or Nitrocefin (EMD Millipore chemicals, Darmstadt, Germany) as a reporter β-lactamase substrate for activity in the isolated fractions. Active fractions were pooled, concentrated and further purified by gel filtration chromatography on a Superdex 75 prep grade gel filtration column (GE Healthcare, Piscataway, N.J.) pre-equilibrated in 50 mM Hepes pH 7.5, 150 mM NaCl. Active fractions were pooled concentrated, quantitated by BCA protein determination (Thermo Scientific, Rockford, Ill.), dialyzed into PBS and frozen at −80° C. in 20% glycerol until use.
(§2) An equal volume of diluted enzyme stock was added, and the plates were incubated at 37° C. for 15 min. Nitrocefin was used as substrate for p99 AmpC, VIM-2 and OXA-1 and dispensed into each well at a final concentration of 100 μM. Absorbance at 486 nm was immediately monitored for 10 min using a Biotek Powerwave XS2 microplate spectrophotometer using the GENS software package (Biotek Instruments, Winooski Vt.). In an analogous fashion, imipenem was used as substrate for Kpc-2 and Cefotaxime was used for SHV-5, while changes in absorbance upon hydrolysis of the β-lactam ring were monitored at 300 nm and 260 nm respectively in UV-transparent 96-well microtiter assay plates. Maximum rates of hydrolysis were compared to those in control wells (without inhibitors), and percentages of enzyme inhibition were calculated for each concentration of inhibitor. The concentration of inhibitor needed to reduce the initial rate of hydrolysis of substrate by 50% (IC50) was calculated as the residual activity of β-lactamase at 486 nm using GraFit version 7 kinetics software package (Erithacus Software, Surrey, UK).
(§3) Using the methodology described above, examples of the current invention were evaluated for their ability to inhibit β-lactamase enzymes from all four Ambler classifications (A through D). […] NT=Not tested.

OXA-1 = target: T2, OXA-1 (Escherichia coli, UniProt P13661); assay: β-lactamase enzyme inhibition, OXA-1; details: substrate Nitrocefin 100 μM, 486 nm; read-out: Class D OXA-1 IC50
T2 construct: made in house; host or cells: E. coli BL21(DE3)
Method: as §1, §2, §3

p99 AmpC = target: T3, p99 AmpC (Enterobacter cloacae, UniProt P05364); assay: β-lactamase enzyme inhibition, p99 AmpC
T3 construct: made in house; host or cells: E. coli BL21(DE3)
Method: as §1, §2, §3

SHV-5 = target: T4, SHV-5 (Klebsiella pneumoniae, UniProt P0A3M1); assay: β-lactamase enzyme inhibition, SHV-5
T4 construct: made in house; host or cells: E. coli BL21(DE3)
Method: as §1, §2, §3

VIM-2 = target: T5, VIM-2 (Escherichia coli, UniProt Q5U7L7); assay: β-lactamase enzyme inhibition, VIM-2; details: substrate Nitrocefin 100 μM, 486 nm; read-out: Class B VIM-2 IC50
T5 construct: made in house; host or cells: E. coli BL21(DE3)
Method: For Vim-2 metallo β-lactamase, the procedure was identical with the following exceptions, first the protein was not pH adjusted to pH 5 with 50 mM sodium acetate, second, the chromatography step was changed to a 5 ml Q sepharose anion exchange column pre-equilibrated with 50 mM Hepes pH 7.5, and elution of the protein was achieved by a linear gradient of NaCl (0-600 mM). Finally, the VIM-2 purification required a second run (3rd step) on the Q sepharose anion exchange column to achieve acceptable purity (>90%).
as §2, §3

Compound	IC50 (KPC-2) [nM]	IC50 (OXA-1) [nM]	IC50 (p99 AmpC) [nM]	IC50 (SHV-5) [nM]	IC50 (VIM-2) [nM]
N[C@H]1CC(CC(=O)N[C@H]2Cc3cccc(C(=O)O)c3OB2O)C[C@@H]1N [Example 37]	< 100	< 100	< 100	1000 to 10000	100 to 1000
CC(NC(=O)C1C[C@H](N)[C@@H](N)C1)C(=O)N[C@H]1Cc2cccc(C(=O)O)c2OB1O (stereo partly drawn) [Example 38]	100 to 1000	100 to 1000	< 100	< 100	100 to 1000
O=C(C[C@H]1CC[C@H](NCc2nccs2)CC1)N[C@H]1Cc2cccc(C(=O)O)c2OB1O [Example 39]	< 100	< 100	< 100	< 100	1000 to 10000
O=C(CC1CCC(N2CCOCC2)CC1)N[C@H]1Cc2cccc(C(=O)O)c2OB1O (stereo partly drawn) [Example 40, (R)-2-hydroxy-3-(2-(4-morpholinocyclohexyl)acetamido)-3,4-dihydro-2H-benzo[e][1,2]oxaborinine-8-carboxylic acid]	< 100	< 100	< 100	100 to 1000	< 100
N[C@@H](C(=O)N[C@H]1Cc2cccc(C(=O)O)c2OB1O)C1CCCCC1 [Example 42, (R)-3-((R)-2-amino-2-cyclohexylacetamido)-2-hydroxy-3,4-dihydro-2H-benzo[e][1,2]oxaborinine-8-carboxylic acid]	< 100	100 to 1000	< 100	100 to 1000	1000 to 10000
NCCNC1CCC(O)(CC(=O)N[C@H]2Cc3cccc(C(=O)O)c3OB2O)CC1 (stereo partly drawn) [Example 43, 3-{2-[4-(2-Amino-ethylamino)-1-hydroxy-cyclohexyl]-acetylamino}-2-hydroxy-3,4-dihydro-2H-benzo[e][1,2]oxaborinine-8-carboxylic acid]	< 100	< 100	< 100	< 100	< 100
NC1CCC(O)(CC(=O)N[C@H]2Cc3cccc(C(=O)O)c3OB2O)CC1 (stereo partly drawn) [Example 44, 3-[2-(4-Amino-1-hydroxy-cyclohexyl)-acetylamino]-2-hydroxy-3,4-dihydro-2H-benzo[e][1,2]oxaborinine-8-carboxylic acid]	100 to 1000	100 to 1000	100 to 1000	100 to 1000	1000 to 10000
N[C@H]1CC[C@H](NCC(=O)N[C@H]2Cc3cccc(C(=O)O)c3OB2O)CC1 [Example 45, 3-[2-(4-Amino-cyclohexylamino)-acetylamino]-2-hydroxy-3,4-dihydro-2H-benzo[e][1,2]oxaborinine-8-carboxylic acid]	< 100	100 to 1000	< 100	< 100	1000 to 10000
NCCN[C@H]1CC[C@@H](CC(=O)N[C@H]2Cc3cccc(C(=O)O)c3OB2O)CC1 [Example 46, (R)-3-(2-(cis-4-(2-aminoethylamino)cyclohexyl)acetamido)-2-hydroxy-3,4-dihydro-2H-benzo[e][1,2]oxaborinine-8-carboxylic acid]	< 100	< 100	< 100	100 to 1000	100 to 1000
O=C(C[C@H]1CC[C@H](NCCNc2ccccn2)CC1)N[C@H]1Cc2cccc(C(=O)O)c2OB1O [Example 48, (R)-2-hydroxy-3-(2-(trans-4-(2-(pyridin-2-ylamino)ethylamino)cyclohexyl)acetamido)-3,4-dihydro-2H-benzo[e][1,2]oxaborinine-8-carboxylic acid]	< 100	< 100	< 100	< 100	100 to 1000
CS(=O)(=O)NCCN[C@H]1CC[C@H](CC(=O)N[C@H]2Cc3cccc(C(=O)O)c3OB2O)CC1 [Example 49, (R)-2-hydroxy-3-(2-(trans-4-(2-(methylsulfonamido)ethylamino)cyclohexyl)acetamido)-3,4-dihydro-2H-benzo[e][1,2]oxaborinine-8-carboxylic acid]	< 100	< 100	< 100	< 100	100 to 1000
NCCN[C@H]1CC[C@H](CC(=O)N[C@@H]2Cc3cccc(C(=O)O)c3OB2O)CC1 [Example 50, (S)-3-(2-(trans-4-(2-aminoethylamino)cyclohexyl)acetamido)-2-hydroxy-3,4-dihydro-2H-benzo[e][1,2]oxaborinine-8-carboxylic acid]	100 to 1000	100 to 1000	100 to 1000	100 to 1000	100 to 1000
CNCCN[C@H]1CC[C@H](CC(=O)N[C@H]2Cc3cccc(C(=O)O)c3OB2O)CC1 [Example 51, (R)-2-hydroxy-3-(2-(trans-4-(2-(methylamino)ethylamino)cyclohexyl)acetamido)-3,4-dihydro-2H-benzo[e][1,2]oxaborinine-8-carboxylic acid]	< 100	< 100	< 100	< 100	< 100
CN1CCN([C@H]2CC[C@H](CC(=O)N[C@H]3Cc4cccc(C(=O)O)c4OB3O)CC2)C1=N [Example 52, (R)-2-hydroxy-3-(2-(trans-4-(2-imino-3-methylimidazolidin-1-yl)cyclohexyl)acetamido)-3,4-dihydro-2H-benzo[e][1,2]oxaborinine-8-carboxylic acid]	< 100	< 100	< 100	< 100	10000 to 100000
C[C@H](N)CN[C@H]1CC[C@H](CC(=O)N[C@H]2Cc3cccc(C(=O)O)c3OB2O)CC1 [Example 53, (R)-3-(2-(trans-4-((S)-2-aminopropylamino)cyclohexyl)acetamido)-2-hydroxy-3,4-dihydro-2H-benzo[e][1,2]oxaborinine-8-carboxylic acid]	< 100	< 100	< 100	< 100	< 100
COC(=O)NCCN[C@H]1CC[C@H](CC(=O)N[C@H]2Cc3cccc(C(=O)O)c3OB2O)CC1 [Example 54, (R)-2-hydroxy-3-(2-(trans-4-(2-(methoxycarbonylamino)ethylamino)cyclohexyl)acetamido)-3,4-dihydro-2H-benzo[e][1,2]oxaborinine-8-carboxylic acid]	< 100	< 100	100 to 1000	< 100	100 to 1000
NCCNC1CC(CC(=O)N[C@H]2Cc3cccc(C(=O)O)c3OB2O)C1 (stereo partly drawn) [Example 55, (R)-3-(2-(3-(2-aminoethylamino)cyclobutyl)acetamido)-2-hydroxy-3,4-dihydro-2H-benzo[e][1,2]oxaborinine-8-carboxylic acid]	< 100	< 100	< 100	< 100	< 100
NC1CC(CC(=O)N[C@H]2Cc3cccc(C(=O)O)c3OB2O)C1 (stereo partly drawn) [Example 56, (R)-3-(2-(3-aminocyclobutyl)acetamido)-2-hydroxy-3,4-dihydro-2H-benzo[e][1,2]oxaborinine-8-carboxylic acid]	< 100	< 100	< 100	100 to 1000	100 to 1000
